Results as given in patent US12630523B2, “Isoquinoline derivatives for use as antiviral and antitumour agents” (priority 2021, dated 2026).

Experiments:
HPV16 E7 protein = target: T1, HPV16 E7 protein (Human papillomavirus type 16, UniProt P03129); assay type: cell-based; conditions: CaSki cells; adjusted degradation, CHX steady state set to 100% degradation
T1 construct: endogenous in cells; host or cells: CaSki cells (HPV16-positive cervical carcinoma)
Method: For intracellular antibody labeling, 0.5×10^6 cells are washed once with 1 ml ice-cold PBS. Cells are centrifuged at 350×g for 5 minutes at 4° C. and then fixed in 1% paraformaldehyde (1 ml/10^6 cells) for 20 minutes at 4° C. Cells are washed with 1 ml ice-cold PBS and centrifuged at 350×g for 5 minutes at 4° C. To permeabilize cells, 100% ice-cold methanol (1 ml/10^6 cells) is added to the cells and incubated for 20 minutes at 4° C. followed by centrifugation at 350×g for 5 minutes at 4° C. Cells are washed with 1 ml ice-cold PBS, centrifuged at 350×g for 5 minutes at 4° C. and resuspended in 0.1% saponin+2% FBS in PBS (ice-cold). Cells are left for 20-30 minutes at room temperature to reduce the background signal and then centrifuged at 350×g for 5 minutes at 4° C. The primary antibody (mAb_HPV16E7-1 (VS13004); concentration 1 μg/μl) is diluted in 0.1% saponin+2% FBS (dilution 0.25 μg/50 μl of incubation buffer per 1×10^6 cells (5 ng/μl)). Cells are incubated with primary antibody for 30 minutes at room temperature, washed with 0.1% saponin+2% FBS and centrifuged at 350×g for 5 minutes at 4° C. The secondary antibody (FITC conjugated goat anti-mouse IgG1-IgM, BD, cat. #555988) is diluted in 0.1% saponin+2% FBS (dilution 1:50). Cells are incubated with secondary antibody for 30 minutes at room temperature, washed once with 0.1% saponin+2% FBS, once with PBS and centrifuged at 350×g for 5 minutes at 4° C.
Cells are resuspended in 700 μl PBS prior to CF analysis with a Beckman Coulter FC 500 MPL, (excitation laser 488 nm). Data analysis is done using the Beckman Coulter software packages MXP for acquisition and CXP for data analysis which includes MFI calculation. Detection of HPV-E7 protein expression is based on morphology back-gating of FL1 histogram (logarithmic scale) with gating for dot plot FS (Forward Scatter) log/SS (Sideward Scatter) log and gating for histograms SS log.
In order to define the level of E7 protein expression and to study the extent of E7 protein steady state level reduction in E7 expressing cells in the presence of various compounds, FC analysis is implemented using the intracellular antibody labeling procedure for monoclonal antibodies to HPV E7. E7 signal intensities are analyzed from the obtained FL1 histograms at logarithmic scale. The FL1 single histogram graph represents the variation in the mean fluorescence intensity (MFI) channel for cells treated with selected compounds compared to cells not incubated with primary antibodies but incubated with secondary, which allows to test for auto-fluorescence, and non-compound treated cells as controls. Non-primary antibody-stained cells are used to set the acquisition parameters to zero. Decrease of the mean fluorescence intensity channel corresponds to a decrease in the expression of HPV16 E7 protein. Degradation of E7 in cells is calculated as percent (%) reduction in MFI(x-Me) using the following formulas: % Drel=(T−C)/T*100; i) relative degradation: % Dad=(T−C)/(T−CHX)*100; ii) adjusted degradation: • Drel=relative degradation, • Dad=adjusted degradation assuming CHX % Drel=100; • T=MFI of non-treated cells; • C=MFI of compound treated cells; • CH=MFI of cycloheximide (CHX) treated cells;
For comparison within one experiment i) the % relative degradation (Drel) is sufficient, whereas for comparison between two or more experiments ii) the adjusted degradation (Dad) is used and CHX steady state is set to a 100% degradation parameter.
1×10^6 freshly seeded CaSki cells (ATCC CRL-7915), are grown in 10 cm diameter cell culture dishes in RPMI1640, 10% FCS medium at 37° C. 5% CO2 overnight and then incubated in the presence of 10 μM Cycloheximide (CHX) 10 μM OC246 or with vehicle alone for four hours at 37° C. 5% CO2. Following this E7 protein is assessed by cytofluorimetric analysis using intracellular HPV16 E7 antibody labeling. […]

[1] = tested on: CaSki (ATCC CRM-CRL-1550); test: Monolayer assay using Sulphorhodamine B (SRB) staining, CaSki; assay type: cell-based; conditions: Homo sapiens, Ca-Ski, read-out: EC50 mean [nM]
Method: Various cell culture cells grown as monolayers are harvested from exponential growing cultures after treatment with various OC compounds at different concentrations. For this depending on the cell line, 10.000 to 30.000 cells were plated in 96-well flat-bottom microtiter plates. After a 24 h recovery period to allow cells to resume exponential growth, supernatants are discarded and 100 μl of culture medium (eight control wells/plate) or culture medium with the test compound are added by a liquid handling robotic system (Microlab® Starlet, Hamilton) and treatment continued for 72 hrs. Compounds are applied at 9 concentrations and eight wells/concentration). At least three independent experiments are performed. For SRB staining, cells are fixed with SRB01 (Tab. 5) for 1 h at 4° C. (final concentration of TCA=10%) washed with a plate washer (Hydroflex, Tecan©) for five times with H2O; and stained with 100 μl of SRB02 at room temperature for 10 min following 4 washes in SRB03 and finally 100 μl of developer solution SRB04 for 5 minutes with shaking. Optical density is assessed using a plate-reader (Sunrise, Tecan©) at 540 nm.
Concentrations required for half maximal response of the compound for cell growth inhibition (EC50) is calculated by non-linear regression (log[conc. of inhibitor] versus response (% T/C)) using the analysis software GraphPad Prism®, Prism 5 for windows, version 5.01 (GraphPad Software Inc., CA).

CaSki cells = test: Cell cycle analysis using Propidium-Iodide staining (flow cytometry); assay type: cell-based, human; conditions: 48 hour incubation; for A*/5 μM (apoptosis as measured from total SUB G1 content) / A*/10 μM (apoptosis as measured from total SUB G1 content): no treatment 15.0; for G2/5 μM / G1/5 μM / G2/10 μM / G1/10 μM: cell cycle distribution; for G2/5 μM / G2/10 μM: no treatment 15.6; for G1/5 μM / G1/10 μM: no treatment 53.3
Method: Propidium-Iodide (PI) DNA staining is performed to facilitate cell cycle analysis. For PI-DNA staining, fixed cells and eventually antibody-stained cells are resuspended in 450 μl of PBS (per 10^6 cells) and incubated with 100 μg/ml RNase (stock 1 mg/ml, in PBS) for 10 minutes at 37° C. Cells are then incubated with 5 μg/106 cells of PI (stock 1 mg/ml in PBS) for 10 minutes at room temperature. Samples are stored at 4° C. until CF analysis.
CaSki cells were incubated with various compounds and cell cycle distribution of the cells was assessed using Propidium-Iodide staining.
In order to analyze the cytostatic versus the cytotoxic effect of OC compounds, cell cycle profiles were analyzed in vitro after 48 hour incubations using Flow Cytometry as a read out. For this a cell cycle analysis from selected OC E7 degrader compounds was conducted in CaSki cells. Using 6 well plates, 1.5×10^5 cells were seeded for each well and grown over night at 37° C. 5% CO2. For analysis of the cell cycle behavior, cells were analyzed in the presence of propidium Iodide (PI^−) by flow cytometry (FC). Briefly, cells were detached by trypsin digestion, all supernatants were included in the analysis, and fixed with 70% ice cold ethanol and stored at 4° C. until FC analysis using PI^− staining (1 mg/ml). At least 7000 events were acquired for each sample.

[2] = tested on: SARS-CoV-2 isolate BetaCov/Belgium/GHB-03021/2020; test: microbe, parasite or virus in culture; assay type: cell-based; conditions: 1.25 μM (non-toxic compound concentration), n4; for inhibition at 1.25 µM: Severe acute respiratory syndrome coronavirus 2
[3] = tested on: human cervical carcinoma (CaSki) xenograft; test: CaSki high risk HPV16 human cervical carcinoma xenograft model; assay type: in vivo, nude mice
Method: The aim of this study was to assess the in vivo efficacy of OC246 and OC974 on a human cervical carcinoma (CaSki) xenograft model in nude mice. OC246 and OC974 were administered oral once daily for four times with three days off, for three cycles at 2 mg/kg/dose. Cisplatin (CDDP) was used as a reference compound with three weekly intravenous (q7dx3) administrations of 6 mg/kg.

[4] = tested on: cell signaling molecules (4E-BP1, p70 S6 kinase, Akt, PTPN14, p53, PD-L1); test: Western blot of cell signaling molecules in CaSki cells; conditions: CaSki; for Phosphorylation of 4E-BP1 on Ser65 and the p70S6 kinase on Thr389: 6 h, order 10 μM VSP035, Torin 1, Torin 2, rapamycin, 5 μM VSP035, CGP 57380; for phosphorylation of AKT on Ser473: 6 h treatment

T1 sequence (P03129 whole entry): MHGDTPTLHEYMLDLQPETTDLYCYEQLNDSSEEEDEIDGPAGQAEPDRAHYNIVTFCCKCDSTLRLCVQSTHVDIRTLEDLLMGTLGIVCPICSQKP

Row | SMILES | % Dad (HPV16 E7 protein) | EC50 [1] | A*/5 μM (apoptosis as measured from total SUB G1 content) (CaSki cells) | A*/10 μM (apoptosis as measured from total SUB G1 content) (CaSki cells) | G2/5 μM (CaSki cells) | G1/5 μM (CaSki cells) | G2/10 μM (CaSki cells) | G1/10 μM (CaSki cells) | inhibition at 1.25 µM [2] | % TGI (Day 44): percentage tumor growth inhibition with respect to controls ([3]; OC246/OC974 os 2 mg/kg/day, 4 × week, 3 cycles, CDDP i.v. q7d × 3, 6 mg/kg) | Δ% on Day 44 ([3]; OC246/OC974 os 2 mg/kg/day, CDDP i.v. 6 mg/kg, control 100) | Tumor Volume Day 44 (mm^3 ± SD) ([3]; OC246/OC974 os daily 4 × week, 3 cycles, 2 mg/kg/day, CDDP i.v. q7d × 3, 6 mg/kg, control 1099 ± 503) | Δ% Body Weight ([3]; between first day of treatment (day 20) and Day 44, OC246/OC974 os 2 mg/kg/day, CDDP i.v. 6 mg/kg, control +4.9) | Phosphorylation of 4E-BP1 on Ser65 and the p70S6 kinase on Thr389 [4] | phosphorylation of AKT on Ser473 [4] | % Inhibition [2]
1 | Cc1ccc(CN2C(=O)c3ccccc3[C@@H](C(=O)Nc3cccc(N4CCN(C)CC4)c3)[C@@H]2c2ccc(C(F)(F)F)nc2)cc1 (relative stereo) [OC968] | 37% | 10600 nM | 11.9% | 11.6% | 18.0% | 52.7% | 19.7% | 48.0% | 2.09% | – | – | – | – | – | – | –
2 | Cc1ccc(CN2C(=O)c3ccccc3[C@@H](C(=O)Nc3ccc(N4CCN(C)CC4)cc3)[C@@H]2c2ccc(C(F)(F)F)cc2)cc1 (relative stereo) [OC972] | 32% | 67700 nM | 12.8% | 13.5% | 16.9% | 53.2% | 15.9% | 48.4% | 5.37% | – | – | – | – | – | – | –
3 | Cc1ccc(CN2C(=O)c3ccccc3[C@@H](C(=O)Nc3cccc(N4CCOCC4)c3)[C@@H]2c2ccc(C(F)(F)F)cc2)cc1 (relative stereo) [OC973] | 20% | 6720 nM | 11.1% | 13.0% | 17.6% | 52.1% | 11.5% | 52.6% | 0.95% | – | – | – | – | – | – | –
4 | CN1CCN(c2cccc(NC(=O)[C@@H]3c4ccccc4C(=O)N(Cc4ccncc4)[C@H]3c3ccc(C(F)(F)F)cc3)c2)CC1 (relative stereo) [OC975] | 67% | 4340 nM | 13.9% | 11.8% | 10.4% | 49.9% | 10.5% | 51.4% | 0.17% | – | – | – | – | – | – | –
5 | CN1CCN(c2cccc(NC(=O)[C@@H]3c4ccccc4C(=O)N(Cc4cccnc4)[C@H]3c3ccc(C(F)(F)F)cc3)c2)CC1 (relative stereo) [OC976] | 54% | 4720 nM | 11.4% | 12.8% | 9.3% | 58.8% | 16.9% | 53.2% | 27.1% | – | – | – | – | – | – | –
6 | [NH2][Pt]([NH2])([Cl])[Cl] [CDDP, Cisplatin, reference compound] | – | – | – | – | – | – | – | – | – | 79.2% | 14% | 242 ± 182 mm^3 | −10.2% | – | – | –
7 | Nc1ccc(-c2ccc3ncc4ccc(=O)n(-c5cccc(C(F)(F)F)c5)c4c3c2)cn1 [Torin2, reference compound] | – | – | – | – | – | – | – | – | – | – | – | – | – | inhibited or strongly reduced | inhibited | 1.46%
8 | CCC(=O)N1CCN(c2ccc(-n3c(=O)ccc4cnc5ccc(-c6cnc7ccccc7c6)cc5c43)cc2C(F)(F)F)CC1 [Torin 1, reference compound] | – | – | – | – | – | – | – | – | – | – | – | – | – | inhibited or strongly reduced | inhibited | 7.00%
